Key:
[1] = tested on: soybean rust (Phakopsora pachyrhizi); assay: Test Example 7: soybean rust, foliar spray pot test; format: in vivo; details: soybean (Kurosengoku), 200 ppm foliar spray, Formulation Example 6, inoculated after 4 days
[2] = tested on: wheat speckled leaf blotch fungus (Septoria tritici); assay: Test Example 5: wheat speckled leaf blotch, foliar spray pot test; format: in vivo; details: wheat (Apogee), 500 ppm foliar spray, Formulation Example 6, inoculated after 4 days

| SMILES | area of the lesion on treated plant relative to untreated plant [1] | area of the lesion on treated plant relative to untreated plant [2] |
| --- | --- | --- |
| COC(=O)Nc1ccccc1COc1ccc(-n2cccn2)cc1 [methyl N-(2-{[4-(1H-pyrazol-1-yl)phenoxy)methyl}phenyl)carbamate] | ≥ 70% |  |
| COC(=O)N(OC)c1ccccc1COc1ccc(-n2nc(C)cc2C)cc1C [methyl N-(2-{[2-methyl-4-(3,5-dimethyl-1H-pyrazol-1-yl)phenoxy]methyl}phenyl)-N-methoxy carbamate] |  | ≥ 70% |
